Laboratory results reported in patent US8580811B2 (Ligand Pharmaceuticals Incorporated, priority 2005, dated 2013).

What follows are molecules tested against T1, human AR (Homo sapiens, UniProt P10275) (assay: IR Binding Assay: whole cell competitive binding of test compounds against 3H-DHT in COS-1 cells transfected with pRShAR).
T1 construct: expressed in transfected cells; host or cells: COS-1 cells
T1 sequence (P10275 1-920): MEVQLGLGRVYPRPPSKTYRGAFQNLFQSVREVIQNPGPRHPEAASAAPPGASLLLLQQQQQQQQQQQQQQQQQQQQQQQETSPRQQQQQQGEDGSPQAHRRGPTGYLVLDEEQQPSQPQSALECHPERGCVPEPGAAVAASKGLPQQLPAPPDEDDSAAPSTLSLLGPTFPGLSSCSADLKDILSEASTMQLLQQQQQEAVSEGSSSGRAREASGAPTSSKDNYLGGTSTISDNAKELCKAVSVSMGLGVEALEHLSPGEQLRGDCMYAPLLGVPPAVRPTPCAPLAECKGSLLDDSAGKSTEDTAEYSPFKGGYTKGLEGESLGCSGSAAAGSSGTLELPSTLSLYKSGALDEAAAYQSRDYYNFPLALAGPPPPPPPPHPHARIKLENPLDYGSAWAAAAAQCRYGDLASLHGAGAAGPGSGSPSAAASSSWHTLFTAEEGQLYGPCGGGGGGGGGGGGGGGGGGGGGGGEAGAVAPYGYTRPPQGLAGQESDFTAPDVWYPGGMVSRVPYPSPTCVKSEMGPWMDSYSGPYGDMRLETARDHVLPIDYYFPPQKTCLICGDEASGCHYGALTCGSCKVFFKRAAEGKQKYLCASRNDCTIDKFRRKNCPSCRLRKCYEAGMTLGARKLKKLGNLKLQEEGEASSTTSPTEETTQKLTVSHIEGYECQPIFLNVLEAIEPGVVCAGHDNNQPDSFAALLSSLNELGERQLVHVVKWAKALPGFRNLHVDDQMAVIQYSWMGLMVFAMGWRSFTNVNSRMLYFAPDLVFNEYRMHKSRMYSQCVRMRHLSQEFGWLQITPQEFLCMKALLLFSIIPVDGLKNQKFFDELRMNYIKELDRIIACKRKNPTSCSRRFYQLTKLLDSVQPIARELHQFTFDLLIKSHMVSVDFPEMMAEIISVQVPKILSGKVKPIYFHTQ
Method in brief: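 COS-1 cells transfected with pRShAR plus β-Gal reporter, serum-starved 24 h, then exposed to 1 nM ³H-DHT with compounds at 10^−10 to 10^−6 M for 3 h at 37 °C. Bound ³H-DHT counted in lysates, normalized to β-Gal. IC50 from log-logit plot; Ki via Cheng-Prusoff using Kd from Scatchard saturation analysis.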

Question: Which Ki does the source give for `COc1ccc(-c2c(C)c3c4c(Cl)cc(=O)[nH]c4ccc3n2CC(F)(F)F)cc1` [Compound 197, 9-Chloro-2-(4-methoxyphenyl)-1-methyl-3-(2,2,2-trifluoroethyl)-3,6-dihydro-pyrrolo[3,2-f]-quinolin-7-one] here?
Answer: < 5 nM

Question: `Cc1c(C)n(CCCO)c2ccc3[nH]c(=O)cc(C(F)(F)F)c3c12` [Compound 249, 1,2-Dimethyl-3-(3-hydroxypropyl)-9-trifluoromethyl-3,6-dihydro-pyrrolo[3,2-f]quinolin-7-one] was tested. Which Ki did it give?
Answer: < 5 nM

Question: With `Cc1c(C)n(CCCO)c2ccc3[nH]c(=O)cc(Cl)c3c12` [Compound 287, 9-Chloro-1,2-dimethyl-3-(3-hydroxypropyl)-3,6-dihydro-pyrrolo[3,2-f]quinolin-7-one] as the molecule, how does the Ki read?
Answer: > 10 nM

Question: Which Ki does the source give for `CCc1c(C)c2c3c(C(F)(F)F)cc(=O)[nH]c3ccc2n1CC(O)C(F)(F)F` (racemic) [Compound 247, (±)-2-Ethyl-1-methyl-3-(3,3,3-Trifluoro-2-hydroxy-propyl)-9-trifluoromethyl-3,6-dihydro-pyrrolo[3,2-f]quinolin-7-one] here?
Answer: < 5 nM

Question: `Cc1c(C)n(CC(F)(F)C(F)(F)F)c2ccc3[nH]c(=O)cc(C(F)(F)F)c3c12` [Compound 219, 1,2-Dimethyl-3-(2,2,3,3,3-pentafluoropropyl)-9-trifluoromethyl-3,6-dihydro-pyrrolo[3,2-f]-quinolin-7-one] was tested. Which Ki did it give?
Answer: < 5 nM

Question: How did the Ki turn out when `CC(C)=Cn1c(C)c(C)c2c3c(C(F)(F)F)cc(=O)[nH]c3ccc21` [Compound 238, 1,2-Dimethyl-3-(2-methylprop-1-enyl)-9-trifluoromethyl-3,6-dihydro-pyrrolo[3,2-f]-quinolin-7-one] was run?
Answer: < 5 nM

Question: `Cc1c(C)n(C[C@H](O)CO)c2ccc3[nH]c(=O)cc(Cl)c3c12` [Compound 291, (S)-9-Chloro-3-(2,3-dihydroxypropyl)-1,2-dimethyl-3,6-dihydro-pyrrolo[3,2-f]-quinolin-7-one] was tested. Which Ki did it give?
Answer: > 10 nM

Question: `CC1c2c(ccc3[nH]c(=O)cc(C(F)(F)F)c23)N(CC(F)(F)C(F)(F)F)C1C` (racemic) [Compound 173, (±)-1,2-Dimethyl-3-(2,2,3,3,3-pentafluoropropyl)-9-trifluoromethyl-1,2,3,6-tetrahydro-pyrrolo[3,2-f]quinolin-7-one] was tested. Which Ki did it give?
Answer: < 5 nM

Question: How did the Ki turn out when `O=c1cc(Cl)c2c(ccc3[nH]c4c(c32)CCC4)[nH]1` [Compound 107, 9-Chloro-1,2-trimethylene-3,6-dihydro-pyrrolo[3,2-f]quinolin-7-one] was run?
Answer: > 10 nM

Question: Which Ki does the source give for `CCC1c2c(ccc3[nH]c(=O)cc(Cl)c23)N(CC(F)(F)F)C1C` (racemic) [Compound 129, (±)-9-Chloro-1-ethyl-2-methyl-3-(2,2,2-trifluoro-ethyl)-1,2,3,6-tetrahydropyrrolo[3,2-f]-quinolin-7-one] here?
Answer: > 10 nM

Question: How did the Ki turn out when `Cc1ccc(-c2c(C)c3c4c(Cl)cc(=O)[nH]c4ccc3n2CC(F)(F)C(F)(F)F)s1` [Compound 268, 9-Chloro-1-methyl-2-(5-methylthiophen-2-yl)-3-(2,2,3,3,3-pentafluoropropyl)-3,6-dihydro-pyrrolo[3,2-f]quinolin-7-one] was run?
Answer: < 5 nM

Question: Which Ki does the source give for `Cc1c(C)n(CC(F)(F)F)c2cc(F)c3[nH]c(=O)cc(Cl)c3c12` [Compound 195, 9-Chloro-1,2-dimethyl-5-fluoro-3-(2,2,2-trifluoroethyl)-3,6-dihydro-pyrrolo[3,2-f]quinolin-7-one] here?
Answer: < 5 nM

Question: With `CC1Cc2c(ccc3[nH]c(=O)cc(Cl)c23)N1CC(F)(F)F` (racemic) [Compound 131, (±)-9-Chloro-2-methyl-3-(2,2,2-trifluoro-ethyl)-1,2,3,6-tetrahydropyrrolo[3,2-f]quinolin-7-one] as the molecule, how does the Ki read?
Answer: > 10 nM

Question: For `Cc1c(-c2cccc(C(F)(F)F)c2)n(CC(F)(F)F)c2ccc3[nH]c(=O)cc(Cl)c3c12` [Compound 201, 9-Chloro-1-methyl-2-(3-trifluoromethylphenyl)-3-(2,2,2-trifluoroethyl)-3,6-dihydro-pyrrolo[3,2-f]-quinolin-7-one], which Ki is on record?
Answer: > 10 nM
